target: human Nav1.5 (Homo sapiens (Human), UniProt Q14524); test: Human Nav1.5 inhibitory activity evaluation (automated patch clamp QPatch16X, HEK293 cells stably expressing human Nav1.5); format: cell-based; settings: HEK293 cells stably expressing human Nav1.5, automated patch clamp QPatch16X
Description: Test Example 2: Human Nav1.5 Inhibitory Activity Evaluation
A cell line in which human Nav1.5 was stably expressed in HEK293 cells was used. DMEM supplemeted with 15% fetal bovine serum, 500 μg/ml geneticin, 100 units/ml penicillin, 100 μg/ml streptomycin, 20 mM HEPES was used as culture medium under the conditions of 37° C. and 5% CO2 in T175 flasks to carry out culturing. When 60-80% confluence was reached, a cell suspension of about 0.5-5.0×10^6 cells/mL was prepared. The amount of current through human Nav1.5 was recorded using a fully automatic patch clamp device QPatch16X at room temperature. As the extracellular solution, 145 mM NaCl, 4 mM KCl, 1 mM MgCl2, 2 mM CaCl2, 10 mM Glucose, and 10 mM HEPES at pH 7.4 was used. As the intracellular solution, 135 mM CsF, ⅕ mM EGTA/CsOH, 10 mM HEPES, and 10 mM NaCl at pH 7.3 was used. The test compounds were dissolved in DMSO and diluted with the extracellular solution to attend the DMSO concentration of 0.1% at the time of assay.
The current response was obtained at a sampling frequency of 25 kHz, and noise was removed with a 3 kHz low-pass filter. The holding potential was −80 mV. Correction of the leakage current was carried out by applying a step pulse of −100 mV before the test pulse. In order to investigate human Nav1.5 inhibitory effect of the test compound, test pulses imitating the action potential of cardiomyocytes were continuously given 20 times. The test pulses were given before and after the test compound addition.
The inhibitory activity of the test compound was determined based on the amount of inward current generated by the 20th depolarization pulse, and the 50% inhibitory concentration (IC50) was calculated from the concentration-response curve.

Sequence of human Nav1.5 (Q14524 whole entry): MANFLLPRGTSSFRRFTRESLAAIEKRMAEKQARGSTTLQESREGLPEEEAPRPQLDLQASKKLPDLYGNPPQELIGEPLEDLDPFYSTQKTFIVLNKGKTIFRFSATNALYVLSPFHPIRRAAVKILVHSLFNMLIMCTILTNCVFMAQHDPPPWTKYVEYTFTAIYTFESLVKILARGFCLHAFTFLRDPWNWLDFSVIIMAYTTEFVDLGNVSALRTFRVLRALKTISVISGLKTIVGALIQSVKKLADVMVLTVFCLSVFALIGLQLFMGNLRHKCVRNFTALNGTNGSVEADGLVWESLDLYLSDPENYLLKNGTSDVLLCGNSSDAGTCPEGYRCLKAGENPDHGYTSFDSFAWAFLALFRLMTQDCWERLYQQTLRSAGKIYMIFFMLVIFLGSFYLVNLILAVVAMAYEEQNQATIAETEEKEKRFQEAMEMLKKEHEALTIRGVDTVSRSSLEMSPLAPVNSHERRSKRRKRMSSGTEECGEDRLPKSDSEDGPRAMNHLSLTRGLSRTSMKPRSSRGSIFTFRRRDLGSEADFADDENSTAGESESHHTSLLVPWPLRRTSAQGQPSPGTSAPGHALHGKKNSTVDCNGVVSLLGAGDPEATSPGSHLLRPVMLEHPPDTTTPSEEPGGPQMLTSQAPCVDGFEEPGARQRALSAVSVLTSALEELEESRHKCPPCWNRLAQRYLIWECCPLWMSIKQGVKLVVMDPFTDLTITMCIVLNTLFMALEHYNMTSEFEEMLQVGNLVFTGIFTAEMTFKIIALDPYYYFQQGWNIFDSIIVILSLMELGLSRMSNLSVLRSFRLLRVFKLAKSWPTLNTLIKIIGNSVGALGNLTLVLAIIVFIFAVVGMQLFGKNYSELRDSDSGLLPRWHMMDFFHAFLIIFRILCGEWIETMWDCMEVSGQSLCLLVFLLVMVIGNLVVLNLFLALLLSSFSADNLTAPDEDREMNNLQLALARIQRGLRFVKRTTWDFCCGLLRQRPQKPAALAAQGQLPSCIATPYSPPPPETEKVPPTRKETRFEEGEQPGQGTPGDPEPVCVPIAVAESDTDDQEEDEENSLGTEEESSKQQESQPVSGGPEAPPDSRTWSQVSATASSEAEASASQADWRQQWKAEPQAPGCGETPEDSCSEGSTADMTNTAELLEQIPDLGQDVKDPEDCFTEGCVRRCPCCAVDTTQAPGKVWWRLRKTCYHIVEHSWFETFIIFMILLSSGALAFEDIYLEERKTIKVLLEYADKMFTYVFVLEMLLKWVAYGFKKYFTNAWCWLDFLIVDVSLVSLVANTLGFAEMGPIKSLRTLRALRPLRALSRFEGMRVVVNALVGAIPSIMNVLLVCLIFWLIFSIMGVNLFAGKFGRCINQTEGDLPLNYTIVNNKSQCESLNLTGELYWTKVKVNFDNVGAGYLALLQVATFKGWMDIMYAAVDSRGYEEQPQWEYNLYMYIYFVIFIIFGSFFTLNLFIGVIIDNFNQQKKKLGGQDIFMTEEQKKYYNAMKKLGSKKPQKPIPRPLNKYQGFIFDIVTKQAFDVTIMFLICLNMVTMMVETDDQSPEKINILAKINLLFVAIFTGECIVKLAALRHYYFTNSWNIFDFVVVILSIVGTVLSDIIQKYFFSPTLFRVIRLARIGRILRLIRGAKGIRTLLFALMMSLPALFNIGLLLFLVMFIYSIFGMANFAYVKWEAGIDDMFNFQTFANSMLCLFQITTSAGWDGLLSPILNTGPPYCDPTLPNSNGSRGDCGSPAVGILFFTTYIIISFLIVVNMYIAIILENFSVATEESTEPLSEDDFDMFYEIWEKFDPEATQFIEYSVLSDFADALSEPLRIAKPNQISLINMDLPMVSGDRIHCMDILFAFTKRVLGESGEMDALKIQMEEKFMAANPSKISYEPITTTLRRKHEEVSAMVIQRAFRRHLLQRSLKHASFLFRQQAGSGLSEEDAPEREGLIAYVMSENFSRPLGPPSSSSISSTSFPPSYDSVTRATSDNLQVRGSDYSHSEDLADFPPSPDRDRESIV

| SMILES | IC50 [µM] |
| --- | --- |
| O=C(N[C@H]1COc2ccc(-c3ccccn3)cc2C1)c1cc2n(n1)CCC(COCC1CC1)O2 (single isomer, unassigned) [111 (isomer B)] | 1 to 3 |
| O=C(N[C@H]1COc2ccc(CC(F)F)cc2C1)c1cc2n(n1)CCC(COCC(F)(F)F)O2 (single isomer, unassigned) [127 (isomer B)] | ≥ 3 |
| N#Cc1ccc2c(c1)C[C@@H](NC(=O)c1cc3n(n1)CCC(CC1CC1)O3)CO2 (single isomer, unassigned) [97 (isomer B)] | ≥ 3 |

same assay, conditions: human Nav1.5, automated patch clamp

| SMILES | IC50 [µM] |
| --- | --- |
| O=C(N[C@H]1COc2ccc(Br)cc2C1)c1cc2n(n1)CC(C(F)(F)F)O2 (stereo partly drawn) [Example 445] | ≥ 3 |
| O=C(N[C@H]1COc2ccc(COCC(F)(F)F)cc2C1)c1cc2n(n1)CCC(CCOC(F)F)O2 (single isomer, unassigned) [150 (isomer B)] | 1 to 3 |
| Cn1ccc(-c2ccc3c(c2)C[C@@H](NC(=O)c2cc4n(n2)CC(CCOCC(F)(F)F)O4)CO3)n1 (single isomer, unassigned) [206 (isomer B)] | ≥ 3 |
| O=C(N[C@H]1COc2ccc(Cl)cc2C1)c1cc2n(n1)CCC(CNCC(F)(F)F)O2 (single isomer, unassigned) [152 (isomer B)] | ≥ 3 |
| O=C(N[C@H]1COc2ccc(CC(F)F)cc2C1)c1cc2n(n1)CCC(CCOC(F)F)O2 (single isomer, unassigned) [148 (isomer B)] | ≥ 3 |
| O=C(N[C@H]1COc2ccc(CC(F)F)cc2C1)c1cc2n(n1)CC(CCOC(F)(F)F)O2 (single isomer, unassigned) [211 (isomer B)] | < 1 |
| N#Cc1ccc2c(c1)C[C@@H](NC(=O)c1cc3n(n1)CC(CCCOC(F)(F)F)O3)CO2 (single isomer, unassigned) [247 (isomer B)] | 1 to 3 |
| O=C(N[C@H]1COc2ccc(C(F)(F)F)cc2C1)c1cc2n(n1)CCC(OCC(F)(F)F)CO2 (single isomer, unassigned) [257 (isomer B)] | ≥ 3 |
| O=C(N[C@H]1COc2ccc(COCC(F)(F)F)cc2C1)c1cc2n(n1)CC(CC1CCOCC1)O2 (single isomer, unassigned) [622 (isomer B)] | ≥ 3 |

target: human Nav1.7 (Homo sapiens (Human), UniProt Q15858); test: Human Nav1.7 inhibitory activity evaluation (automated patch clamp QPatch16X, HEK293A cells stably expressing human Nav1.7 and human Navβ1); format: cell-based; settings: HEK293A cells stably expressing human Nav1.7 and human Navβ1, automated patch clamp QPatch16X
Sequence (Q15858 whole entry): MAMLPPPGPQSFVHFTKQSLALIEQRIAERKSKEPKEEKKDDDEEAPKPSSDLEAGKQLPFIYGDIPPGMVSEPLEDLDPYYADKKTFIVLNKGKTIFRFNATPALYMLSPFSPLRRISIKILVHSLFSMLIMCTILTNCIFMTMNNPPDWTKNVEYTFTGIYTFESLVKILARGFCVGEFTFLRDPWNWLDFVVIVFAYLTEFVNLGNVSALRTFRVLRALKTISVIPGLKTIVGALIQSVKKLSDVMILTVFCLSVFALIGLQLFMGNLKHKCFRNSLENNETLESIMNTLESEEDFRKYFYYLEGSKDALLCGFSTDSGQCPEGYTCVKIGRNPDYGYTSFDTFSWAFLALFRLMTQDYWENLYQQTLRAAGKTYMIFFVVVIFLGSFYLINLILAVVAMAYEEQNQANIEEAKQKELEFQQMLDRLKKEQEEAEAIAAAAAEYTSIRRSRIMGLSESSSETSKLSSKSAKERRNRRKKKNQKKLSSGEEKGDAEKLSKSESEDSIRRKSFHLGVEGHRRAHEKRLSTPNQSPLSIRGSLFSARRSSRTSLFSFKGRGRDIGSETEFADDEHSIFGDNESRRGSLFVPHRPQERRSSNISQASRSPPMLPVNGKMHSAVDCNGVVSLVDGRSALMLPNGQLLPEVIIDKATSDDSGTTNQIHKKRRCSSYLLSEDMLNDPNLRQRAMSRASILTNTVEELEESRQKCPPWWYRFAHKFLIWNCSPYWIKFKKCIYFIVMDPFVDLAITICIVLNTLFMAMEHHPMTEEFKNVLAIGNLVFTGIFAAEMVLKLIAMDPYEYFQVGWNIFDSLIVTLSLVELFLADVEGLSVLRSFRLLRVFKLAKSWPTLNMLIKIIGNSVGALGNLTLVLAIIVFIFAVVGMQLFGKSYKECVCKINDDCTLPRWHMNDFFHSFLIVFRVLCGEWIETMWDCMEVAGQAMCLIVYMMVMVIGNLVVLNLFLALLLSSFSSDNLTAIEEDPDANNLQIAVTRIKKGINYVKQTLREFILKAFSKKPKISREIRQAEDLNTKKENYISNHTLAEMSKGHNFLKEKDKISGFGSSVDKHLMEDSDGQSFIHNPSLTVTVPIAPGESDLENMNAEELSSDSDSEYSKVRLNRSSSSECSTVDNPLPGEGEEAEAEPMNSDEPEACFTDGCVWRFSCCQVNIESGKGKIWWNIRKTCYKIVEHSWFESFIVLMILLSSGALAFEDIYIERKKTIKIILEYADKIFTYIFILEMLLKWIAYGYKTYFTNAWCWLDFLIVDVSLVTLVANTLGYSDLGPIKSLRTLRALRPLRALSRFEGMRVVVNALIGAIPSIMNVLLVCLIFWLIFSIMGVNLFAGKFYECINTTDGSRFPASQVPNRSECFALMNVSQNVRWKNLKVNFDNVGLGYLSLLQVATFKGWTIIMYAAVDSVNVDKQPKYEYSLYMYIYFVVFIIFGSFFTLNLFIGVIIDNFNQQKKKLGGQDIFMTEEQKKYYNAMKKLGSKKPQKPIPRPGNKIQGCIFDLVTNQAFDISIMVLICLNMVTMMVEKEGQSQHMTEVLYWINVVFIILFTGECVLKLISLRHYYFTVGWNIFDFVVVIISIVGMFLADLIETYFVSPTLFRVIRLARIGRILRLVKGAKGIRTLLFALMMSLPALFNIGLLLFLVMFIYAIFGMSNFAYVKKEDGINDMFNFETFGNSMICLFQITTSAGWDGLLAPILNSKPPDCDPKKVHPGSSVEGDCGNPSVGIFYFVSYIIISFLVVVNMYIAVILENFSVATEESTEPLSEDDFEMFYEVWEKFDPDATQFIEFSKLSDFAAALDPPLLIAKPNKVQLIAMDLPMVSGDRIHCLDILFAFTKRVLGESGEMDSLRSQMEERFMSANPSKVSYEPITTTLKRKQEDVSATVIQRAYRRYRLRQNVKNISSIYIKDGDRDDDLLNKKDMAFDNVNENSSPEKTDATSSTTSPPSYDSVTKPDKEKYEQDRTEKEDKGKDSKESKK
Sequence (Q07699 19-218 partner): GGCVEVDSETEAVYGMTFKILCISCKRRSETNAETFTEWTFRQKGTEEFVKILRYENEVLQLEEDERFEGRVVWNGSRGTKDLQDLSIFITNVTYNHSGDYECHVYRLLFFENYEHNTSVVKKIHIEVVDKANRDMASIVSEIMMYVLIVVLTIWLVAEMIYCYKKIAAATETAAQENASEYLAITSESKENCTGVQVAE
Method in brief: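 QPatch16X whole-cell recordings at room temperature from HEK293A cells stably expressing human Nav1.7 with Navβ1, CsF-based internal solution, pH 7.4 external, 0.1% DMSO. From −100 mV holding, protocol included a 15 s hold at a potential inactivating ~30-40% of channels; IC50 from inward current at the second −10 mV pulse.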

| SMILES | IC50 [µM] |
| --- | --- |
| O=C(N[C@H]1COc2ccc(Cl)cc2C1)c1cc2n(n1)CCC(COc1ccncc1)O2 (stereo partly drawn) [Example 120] | < 10 |
| CN(Cc1ccccc1)CC1CCn2nc(C(=O)N[C@H]3COc4ccc(Cl)cc4C3)cc2O1 (stereo partly drawn) [Example 121] | < 10 |
| N#Cc1ccc2c(c1)C[C@@H](NC(=O)c1cc3n(n1)CCC(COC(C(F)(F)F)C(F)(F)F)O3)CO2 (stereo partly drawn) [Example 116] | < 1 |
| O=C(N[C@H]1COc2ccc(CC(F)F)cc2C1)c1cc2n(n1)CCC(COC(F)F)O2 (single isomer, unassigned) [138 (isomer A)] | < 1 |
| O=C(NC1COc2cccc(C3CC3)c2C1)c1cn2c(n1)CCC(C(F)(F)F)C2 (stereo not drawn) [Example 10] | < 10 |
| O=C(N[C@H]1COc2ccccc2C1)c1cn2c(n1)CNC(CCc1ccc(F)cc1)C2 (stereo partly drawn) [Example 53] | < 10 |
| CN1Cc2nc(C(=O)N[C@H]3COc4ccccc4C3)cn2CC1CCc1ccc(F)cc1 (stereo partly drawn) [Example 54] | < 10 |
| COc1ccc2c(c1)CC(NC(=O)c1cn3c(n1)CCC(C(F)(F)F)C3)CO2 (stereo not drawn) [Example 13] | < 10 |
| O=C(N[C@H]1COc2ccccc2C1)c1cn2c(n1)CCC(C1CCCC1)C2 (stereo partly drawn) [Example 24] | < 1 |
| CC(C)CCC1Cn2cc(C(=O)N[C@H]3COc4ccccc4C3)nc2CN1C (stereo partly drawn) [Example 50] | < 10 |

same assay, conditions: human Nav1.7, automated patch clamp

| SMILES | IC50 [µM] |
| --- | --- |
| N#Cc1ccc2c(c1)C[C@@H](NC(=O)c1cc3n(n1)CCC(CSCC(F)(F)F)O3)CO2 (stereo partly drawn) [Example 424] | < 10 |
| O=C(N[C@H]1COc2ccc(C(F)(F)F)cc2C1F)c1cc2n(n1)CCN(CCC(F)(F)F)C2 (stereo partly drawn) [Example 647] | < 1 |
| O=C(N[C@H]1COc2ccc(C(F)(F)F)cc2C1)c1nn2c(c1-c1cccc(C(O)C(F)(F)F)n1)COCC2 (stereo partly drawn) [Example 527] | < 1 |
| O=C(N[C@H]1COc2ccc(C(F)(F)F)cc2C1)c1nn2c(c1-c1cccc(CO)n1)COCC2 [Example 519] | < 10 |
| O=C(N[C@H]1COc2ccc(C(F)(F)F)cc2C1O)c1cc2n(n1)CCN(CCOCC(F)(F)F)C2 (stereo partly drawn) [Example 677] | < 10 |
| CC(C)(F)CCC1CCc2nc(C(=O)N[C@H]3COc4ccccc4C3)cn2C1 (stereo partly drawn) [Example 320] | < 10 |
| N#Cc1ccc2c(c1)C[C@@H](NC(=O)c1cc3n(n1)CCC(Cc1ccc(F)cc1)O3)CO2 (stereo partly drawn) [Example 384] | < 1 |
| O=C(N[C@H]1COc2ccc(CCOC(F)F)cc2C1)c1cc2n(n1)CC(CCN1CC(F)(F)C1)O2 (stereo partly drawn) [Example 237] | < 1 |
| O=C(N[C@H]1COc2ccc(C(F)(F)F)cc2C1O)c1cc2n(n1)CC(CCCOCC(F)F)O2 (stereo partly drawn) [Example 609] | < 10 |
| N#Cc1ccc2c(c1)C[C@@H](NC(=O)c1cc3n(n1)CC(CCCOC(F)F)O3)CO2 (single isomer, unassigned) [248 (isomer B)] | < 10 |
| O=C(NC1COc2c(F)cc(F)cc2C1)c1cc2n(n1)CCC(c1ccccc1)O2 (stereo not drawn) [Example 354] | < 10 |
| O=C(N[C@H]1COc2ccc(CC(F)F)cc2C1)c1cc2n(n1)CCC(C(F)(F)F)CO2 (stereo partly drawn) [Example 633] | < 1 |
| O=C(N[C@H]1COc2ccc(C(F)(F)F)cc2C1)c1nn2c(c1-c1ccccn1)COCCC2 [Example 528] | < 10 |
| O=C(N[C@H]1COc2ccc(CC(F)(F)F)cc2C1)c1cc2n(n1)CC(CCN1CCC(F)(F)C1)O2 (single isomer, unassigned) [241 (isomer A)] | < 1 |
| COc1ncccc1-c1ccc2c(c1)C[C@@H](NC(=O)c1cc3n(n1)CCC(C(F)(F)F)O3)CO2 (stereo partly drawn) [Example 377] | < 10 |
| O=C(N[C@H]1COc2ccc(COCC(F)(F)F)cc2C1)c1cc2n(n1)CC(C(F)(F)F)O2 (stereo partly drawn) [Example 183] | < 10 |
| O=C(N[C@H]1COc2ccc(-c3cnccn3)cc2C1)c1cc2n(n1)CC(CCOC1CCC1)O2 (stereo partly drawn) [Example 474] | < 1 |
| O=C(N[C@H]1COc2ccc(C(F)(F)F)cc2C1F)c1cc2n(n1)CCN(CCOCC(F)(F)F)C2 (stereo partly drawn) [Example 645] | < 1 |

| SMILES | IC50 [µM] |
| --- | --- |
| O=C(N[C@H]1COc2ccc(Cl)cc2C1)c1cc2n(n1)CCC(COCCOCC(F)(F)F)O2 (stereo partly drawn) [Example 662] | < 1 |
| O=C(NC1COc2ccc(F)c(F)c2C1)c1cc2n(n1)CCC(COCC(F)(F)F)O2 (stereo not drawn) [Example 627] | < 10 |
| O=C(N[C@H]1COc2ccc(C(F)(F)F)cc2C1)c1cc2n(n1)CCC(OCCOCC(F)(F)F)CO2 (stereo partly drawn) [Example 680] | < 10 |
| N#Cc1ccc2c(c1)C[C@@H](NC(=O)c1cc3n(n1)CCC(OC(F)(F)F)CO3)CO2 (single isomer, unassigned) [253 (isomer A)] | < 10 |
| O=C(N[C@H]1COc2ccc(Cl)cc2C1)c1cc2n(n1)CC(COCCOCC(F)(F)F)O2 (stereo partly drawn) [Example 658] | < 1 |
| O=C(N[C@H]1COc2ccc(C(F)(F)F)cc2C1O)c1cc2n(n1)CC(CCCOCC(F)(F)F)O2 (single isomer, unassigned) [603 (isomer A)] | < 1 |
| N#Cc1ccc2c(c1)C[C@@H](NC(=O)c1cc3n(n1)CCC(COCC1CCC1)O3)CO2 (stereo partly drawn) [Example 410] | < 1 |
| O=C(N[C@H]1COc2ccc(C(F)(F)F)cc2C1F)c1cc2n(n1)CCN(CCOCC(F)F)C2 (stereo partly drawn) [Example 678] | < 1 |
| N#Cc1ccc2c(c1)C[C@@H](NC(=O)c1cc3n(n1)CCC(CSCC(F)(F)F)O3)CO2 (stereo partly drawn) [Example 423] | < 1 |
| N#Cc1ccc2c(c1)C(O)C(NC(=O)c1cc3n(n1)CCC(c1ccccc1F)O3)CO2 (stereo not drawn) [Example 573] | < 10 |
| COc1c(C(F)(F)F)ccc2c1C[C@@H](NC(=O)c1cc3n(n1)CCC(C(F)F)O3)CO2 (stereo partly drawn) [Example 551] | < 10 |
| O=C(NC1COc2ccc(F)c(F)c2C1)c1cc2n(n1)CCC(C(F)(F)F)O2 (stereo not drawn) [Example 626] | < 10 |
| N#Cc1ccc2c(c1)C[C@@H](NC(=O)c1cc3n(n1)CC(CCOCC1(C(F)(F)F)CC1)O3)CO2 (stereo partly drawn) [Example 465] | < 1 |
| O=C(N[C@H]1COc2ccc(COCC(F)(F)F)cc2C1)c1cc2n(n1)CCC(CCOC(F)F)O2 (single isomer, unassigned) [150 (isomer A)] | < 1 |
| O=C(N[C@H]1COc2ccc(CC(F)F)cc2C1)c1cc2n(n1)CCC(C1CCCO1)O2 (stereo partly drawn) [Example 668] | < 10 |
| O=C(N[C@H]1COc2ccc(COCC(F)(F)F)cc2C1)c1cc2n(n1)CC(C(F)(F)F)O2 (single isomer, unassigned) [184 (isomer B)] | < 10 |
| CN(C)C(=O)COCc1ccc2c(c1)C[C@@H](NC(=O)c1cc3n(n1)CCC(c1ccccc1F)O3)CO2 (stereo partly drawn) [Example 370] | < 10 |

Source: patent publication US12421225B2, “Heteroaromatic amide derivative and medicament containing the same” (KAKEN PHARMACEUTICAL CO., LTD., priority 2018, dated 2025)
